The numbers were not newly measured in paper PMC5314429, “Enhancing PET Signal at Target Tissue in Vivo: Dendritic and Multimeric Tris(hydroxypyridinone) Conjugates for Molecular Imaging of αvβ3 Integrin Expression with Gallium-68” (Bioconjugate Chemistry, 2016), which cites them from elsewhere.

Details of the data set: method as in PMID 16821777.

With `CC(=O)NC(CCC(=O)NCc1c(O)c(=O)cc(C)n1C)(CCC(=O)NCc1c(O)c(=O)cc(C)n1C)CCC(=O)NCc1c(O)c(=O)cc(C)n1C` [THP-Ac], the “log K1 for Fe^3+” value was 32.52. The “pFe^3+” value (pH 7.4, [Fe^3+] = 10^–6 M, [Ligand] = 10^–5 M) is 28.47.
